Drawing on patent US20230002324A1, “NAPHTHOQUINONE DERIVATIVES FOR TREATMENT OF OXIDATIVE STRESS DISORDERS” (PTC THERAPEUTICS, INC., priority 2019, published 2023), this text covers EC50 for 21 compounds.

Structures are written as SMILES. Where two headings read alike, the source gives them in different places.

Common to all, as to format: cell-based
In experiment [1] the test system is Q7 cells (ST HDH Q7/7; immortalized mouse striatal cells). Put plainly: Q7 RSL3 challenge cell survival (rescue) assay. To be noted: 18 h, read-out: Q7 RSL3 Survival EC50. An excerpt: (§1) In neuronal cells excess extracellular glutamate inhibits the cystine/glutamate antiporter leading to intracellular cysteine depletion, GSH depletion, reactive oxygen species (ROS) production and cell death, a phenomenon termed oxidative glutamate toxicity, oxytosis, or ferroptosis. […] Q7 cells (ST HDH Q7/7; immortalized mouse striatal cells) challenged with cystine-free media or the selective, irreversible GPX4 inhibitor, methyl (1S,3R)-2-(2-chloroacetyl)-1-(4-(methoxycarbonyl)phenyl)-2,3,4,9-tetrahydro-1H-pyrido[3,4-b]indole-3-carboxylate (hereafter referred to as RSL3), recapitulate this phenotype, as do normal human fibroblasts (NHF) challenged with RSL3. An initial screen was performed to identify compounds effective in rescuing Q7 and/or NHF cells from death resulting from cystine deprivation or RSL3 challenge. This method is further described in Yonezawa et al., J. Neurochem 67, 566-573 (1996), Li et al., J Neurosci., 23, 5816-5826 (2003), Yang and Stockwell, Chem Biol., 15: 234-45 (2008), and Yang et al., Cell 156, 317-331 (2014). See also Hinman A, Holst C R, Latham J C, et al. Vitamin E hydroquinone is an endogenous regulator of ferroptosis via redox control of 15-lipoxygenase. PLoS One. 2018; 13(8):e0201369. Published 2018 Aug. 15. doi:10.1371/journal.pone.0201369; and Kahn-Kirby A H, Amagata A, Maeder C I, et al. Targeting ferroptosis: A novel therapeutic strategy for the treatment of mitochondrial disease-related epilepsy. PLoS One. 2019; 14(3):e0214250. Published 2019 Mar. 28. doi:10.1371/journal.pone.0214250.
(§2) DMEM (Catalog no. 11995-040), DMEM without Cystine (Catalog no. 21013-024), DMEM without Glucose (Catalog A1443001), PBS (Phosphate buffered saline), Penicillin-streptomycin mix, L-Glutamine, Glucose, Phenol Red, and Pyruvate were purchased from ThermoFisher Scientific (Gibco). Fetal Bovine Serum was obtained from Mediatech, Inc., or Sigma Aldrich. Mouse striatum derived ST HDH Q7/7 (Q7) and normal human skin fibroblast (NHF, product number GM21811) cells were obtained from the Coriell Institute. Methionine and Vitamin K2 were purchased from Sigma Aldrich. RSL3 was synthesized as previously described (see e.g. US Patent Publication US2010/0081654). Cell Titer Glo 2.0 was purchased from Promega. Q7 cell culture medium (Q7 growth medium) was made by combining 50 mL Fetal Bovine Serum, 100 U/mL penicillin, and 100 microgram/mL streptomycin; DMEM was added to make the volume up to 500 mL. Assay medium for the Cystine Deprivation assay was prepared by combining 50 mL Fetal Bovine Serum, 100 U/mL penicillin, 100 microgram/mL streptomycin, 4 mM L-Glutamine, 1 mM Pyruvate and 30 mg/L Methionine; DMEM without Cystine was added to make the volume up to 500 mL. NHF cell culture medium (NHF growth medium) was made by combining 50 mL Fetal Bovine Serum, 100 U/mL penicillin, 100 microgram/mL streptomycin, 2.8 mL 20% Glucose solution (final concentration 6 mM), L-glutamine (final concentration 2 mM), phenol red (final concentration 15 mg/L); DMEM without Glucose was added to make the volume up to 500 mL. Assay medium for the RSL3 challenge assay was identical to Growth medium. While not in use during the course of the experiments, these solutions were stored at 4° C. The cells were grown in 150-cm^2 tissue culture-treated flasks. Every third or fourth day, the cells were sub-cultured by trypsinization and re-seeded at a cell density of 600,000 (Q7) or 300,000 (NHF) cells per flask.
(§3) Q7 or NHF cells were cultured routinely as described herein. For 384-well cell survival assays, cells were seeded in clear bottom, black wall 384-well tissue culture-treated polystyrene plates by re-suspending a cell suspension at a density of 50,000 cells/mL in growth medium, then dispensing 60 microliters of cell suspension per well using either an electronic multichannel pipette or a Multidrop™ Combi Reagent Dispenser (ThermoFisher Scientific), corresponding to 3,000 cells/well. […]

Experiment [2] has as its system normal human fibroblasts (NHF, GM21811). Put plainly: NHF GM21811 RSL3 challenge cell survival (rescue) assay. Conditions: Fibroblast, 48 h, read-out: NHF GM21811 RSL3 Survival EC50.
Text: as §1, §2, §3

The subject of experiment [3] is Q7 cells (ST HDH Q7/7; immortalized mouse striatal cells). Put plainly: Q7 Cystine Deprivation cell survival (rescue) assay. Conditions: 18 h, read-out: Q7 Cystine Deprivation Survival EC50. The method, boiled down: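 Cells were seeded at 3,000/well and allowed to attach for 5 h at 33 °C. Wells were then washed twice with PBS and switched to cystine-free DMEM containing FBS, 4 mM L-glutamine, 1 mM pyruvate and 30 mg/L methionine to induce ferroptotic death. Compounds were scored for survival rescue.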

[4] abbreviates: Q7 cells, RSL3 2 micromolar, Cell Titer Glo.
Setting [5] is: NHF cells, RSL3 2 micromolar, Cell Titer Glo.
The mark [6] stands for this setting: Q7 cells, cystine-free medium, Cell Titer Glo, 50% relative viability vs Vitamin K2 (1 micromolar).

For `[2H]C([2H])(C1=C(C)C(=O)c2ccccc2C1=O)c1ccc(C(F)(F)F)cn1` [Example 21, 2-methyl-3-((5-(trifluoromethyl)pyridin-2-yl)methyl-d2)naphthalene-1,4-dione], the concentration for a half-maximal effect (EC50) in experiment [1] (setting [4]) and in experiment [2] (setting [5]) was < 50 nM in each case.
`CC1=C(Cc2ccc(C(F)(F)F)cn2)C(=O)c2cc(C)c(C)cc2C1=O` [Example 43, 2,6,7-trimethyl-3-((5-(trifluoromethyl)pyridin-2-yl)methyl)naphthalene-1,4-dione]: the EC50 (in general, the midpoint of the concentration-response curve) in experiment [3] (setting [6]) was in the range of 50 to 250 nM; in experiment [1] (setting [4]), 250 to 1000 nM.
For `CC1=C(Cc2ccc(F)cn2)C(=O)c2cc(F)ccc2C1=O` [Example 47, 6-fluoro-3-((5-fluoropyridin-2-yl)methyl)-2-methylnaphthalene-1,4-dione] the same measures were < 50 nM and < 50 nM.
On to `CC1=C(Cc2ccc(C(F)(F)F)cn2)C(=O)c2cc(F)cc(F)c2C1=O` [Example 49, 5,7-difluoro-3-methyl-2-((5-(trifluoromethyl)pyridin-2-yl)methyl)naphthalene-1,4-dione], for which the concentration for a half-maximal effect (EC50) in experiment [3] (setting [6]) and in experiment [1] (setting [4]) was < 50 nM throughout.
For the compound `CC1=C(Cc2ccc(C(F)(F)F)cn2)C(=O)c2c(F)cc(F)cc2C1=O` [Example 50, 5,7-difluoro-2-methyl-3-((5-(trifluoromethyl)pyridin-2-yl)methyl)naphthalene-1,4-dione], the EC50 in experiment [3] (setting [6]) and in experiment [1] (setting [4]) was < 50 nM each time.
Take `CC1=C(Cc2ccc(C(F)(F)F)cn2)C(=O)c2cc(C(F)(F)F)ccc2C1=O` [Example 53, 2-methyl-6-(trifluoromethyl)-3-((5-(trifluoromethyl)pyridin-2-yl)methyl)naphthalene-1,4-dione]: the EC50 in experiment [3] (setting [6]) and in experiment [1] (setting [4]) was 50 to 250 nM throughout.
As for `[2H]C([2H])([2H])C1=C(Cc2ccc(C(F)(F)F)cn2)C(=O)c2ccccc2C1=O` [Example 54, 2-(methyl-d3)-3-((5-(trifluoromethyl)pyridin-2-yl)methyl)naphthalene-1,4-dione], the EC50 in experiment [3] (setting [6]) and in experiment [1] (setting [4]) was < 50 nM each time.
On to `CCC1=C(Cc2ccc(C(F)(F)F)cn2)C(=O)c2cc(F)cc(F)c2C1=O` [Example 56, 3-ethyl-5,7-difluoro-2-((5-(trifluoromethyl)pyridin-2-yl)methyl)naphthalene-1,4-dione], for which the EC50 in experiment [1] and in experiment [2] was < 50 nM in each case.
Consider `CC1=C(Cc2ccc(C(F)(F)F)cn2)C(=O)c2cccc(Cl)c2C1=O` [Example 60, 5-chloro-3-methyl-2-[[5-(trifluoromethyl)-2-pyridyl]methyl]naphthalene-1,4-dione], for which the half-maximal effective concentration (EC50) in experiment [1] (setting [4]) and in experiment [2] (setting [5]) was < 50 nM in each case.
Consider `[2H]C([2H])([2H])C1=C(Cc2ccc(C(F)(F)F)c(C#N)n2)C(=O)c2cc(F)cc(F)c2C1=O` [Example 71, 6-((5,7-difluoro-3-(methyl-d3)-1,4-dioxo-1,4-dihydronaphthalen-2-yl)methyl)-3-(trifluoromethyl)picolinonitrile], for which the EC50 in experiment [1] (setting [4]) and in experiment [2] (setting [5]) was < 50 nM throughout.
With `[2H]C([2H])([2H])C1=C(Cc2ccc(C(F)(F)F)c(C#N)n2)C(=O)c2c(F)cc(F)cc2C1=O` [Example 72, 6-((6,8-difluoro-3-(methyl-d3)-1,4-dioxo-1,4-dihydronaphthalen-2-yl)methyl)-3-(trifluoromethyl)picolinonitrile], the EC50 in experiment [1] (setting [4]) and in experiment [2] (setting [5]) was < 50 nM each time.
For the compound `[2H]C([2H])([2H])C1=C(Cc2ccc(C(F)(F)F)c(C#N)n2)C(=O)c2ccc(F)cc2C1=O` [Example 73, 6-((6-fluoro-3-(methyl-d3)-1,4-dioxo-1,4-dihydronaphthalen-2-yl)methyl)-3-(trifluoromethyl)picolinonitrile], the EC50 in experiment [1] (setting [4]) and in experiment [2] (setting [5]) was < 50 nM each time.
As to `CC1=C(Cc2ccc(C(F)(F)F)c(C#N)n2)C(=O)c2cc(F)cc(F)c2C1=O` [Example 74, 6-((5,7-difluoro-3-methyl-1,4-dioxo-1,4-dihydronaphthalen-2-yl)methyl)-3-(trifluoromethyl)picolinonitrile], the figures for the EC50 in experiment [1] (setting [4]) and in experiment [2] (setting [5]) were 50 to 250 nM and < 50 nM, respectively.
Regarding `CC1=C(Cc2ccc(C(F)(F)F)c(C#N)n2)C(=O)c2c(F)cc(F)cc2C1=O` [Example 75, 6-((6,8-difluoro-3-methyl-1,4-dioxo-1,4-dihydronaphthalen-2-yl)methyl)-3-(trifluoromethyl)picolinonitrile], the EC50 in experiment [1] (setting [4]) and in experiment [2] (setting [5]) was < 50 nM each time.
Consider `[2H]C([2H])([2H])C1=C(Cc2ccc(C(F)(F)F)c(C#N)n2)C(=O)c2c(F)ccc(F)c2C1=O` [Example 76, 6-((5,8-difluoro-3-(methyl-d3)-1,4-dioxo-1,4-dihydronaphthalen-2-yl)methyl)-3-(trifluoromethyl)picolinonitrile], for which the EC50 in experiment [1] (setting [4]) and in experiment [2] (setting [5]) was < 50 nM each time.
Take `CC1=C(Cc2ccc(C(F)(F)F)c(C#N)n2)C(=O)c2ccccc2C1=O` [Example 77, 6-((3-methyl-1,4-dioxo-1,4-dihydronaphthalen-2-yl)methyl)-3-(trifluoromethyl)picolinonitrile]: the EC50 in experiment [1] (setting [4]) and in experiment [2] (setting [5]) was < 50 nM each time.
In the case of `CCCC1=C(Cc2ccc(C(F)(F)F)c(C#N)n2)C(=O)c2cc(F)cc(F)c2C1=O` [Example 82, 6-((5,7-difluoro-1,4-dioxo-3-propyl-1,4-dihydronaphthalen-2-yl)methyl)-3-(trifluoromethyl)picolinonitrile], the EC50 in experiment [1] (setting [4]) and in experiment [2] (setting [5]) was < 50 nM throughout.
Regarding `O=C1C(Cc2ccc(F)cn2)=C(C2CC2)C(=O)c2c(F)ccc(F)c21` [Example 87, 2-cyclopropyl-5,8-difluoro-3-((5-fluoropyridin-2-yl)methyl)naphthalene-1,4-dione], the EC50 in experiment [1] (setting [4]) and in experiment [2] (setting [5]) was < 50 nM throughout.
As to `CCCC1=C(Cc2ccc(C(F)(F)F)c(C#N)n2)C(=O)c2ccccc2C1=O` [Example 114, 6-((1,4-dioxo-3-propyl-1,4-dihydronaphthalen-2-yl)methyl)-3-(trifluoromethyl)picolinonitrile], the EC50 in experiment [3] (setting [6]) and in experiment [1] (setting [4]) was < 50 nM in each case.
With `CC1=C(Cc2ccc(C(F)(F)F)c(C#N)n2)C(=O)c2c(F)c(F)cc(F)c2C1=O` [Example 130, 6-((5,7,8-trifluoro-3-methyl-1,4-dioxo-1,4-dihydronaphthalen-2-yl)methyl)-3-(trifluoromethyl)picolinonitrile], in experiment [1] (setting [4]), the EC50 is > 1000 nM.
As to `Cc1c(Cc2ccc(C(F)(F)F)cn2)c(O)c2ccccc2c1O` [Example 131, 2-methyl-3-((5-(trifluoromethyl)pyridin-2-yl)methyl)naphthalene-1,4-diol], the EC50 in experiment [3] and in experiment [1] was < 50 nM each time.
